Structures can show the parent of a compound that is named as a salt.
Tests used:
[1] = tested on: cough induced by citric acid aerosol in guinea pigs; experiment: Guinea pig cough test (citric acid aerosol, Charlier procedure); type: in vivo; settings: Cavia porcellus, inhaled or nasal, antitussive test not given
[2] = tested on: cough induced by electric stimulation in dogs; experiment: Dog cough test (cough induced by electric stimulation, Stefko procedure); type: in vivo, conscious mongrel dogs; settings: for duration of action (antitussive): test not named; for duration of action: in words
Procedure: (§1) The techniques described by Charlier et al. (Arch. Int. Pharmacodyn. 134, 306, 1961) and by Stefko et al. (J. Pharm. Exp. Therap., 108, 217, 1953), adapted with minor modifications, are used to investigate the antitussive properties of the compounds of the invention. Codeine phosphate is used as positive reference compound.
In the Stefko procedure, conscious mongrel dogs (15±3 kg body weight) are used; the compounds of the invention are tested for their ability to inhibit cough induced by electric stimulation.
Under general anesthesia, two insulated nichrome wires (0.4 mm diameter) are surgically implanted into the submucosa of the trachea.
About two days later, the dogs are placed in a sling and the exteriorized electrodes are connected to an electric stimulating device (such as Grass S 48 Mod.).
The stimulation parameters such as: delay 0.01 msec, duration 1 msec, frequency 30 Hz, are used.
An electrical stimulus of 1 sec is applied 10 times at 5 sec intervals in order to determine the minimum voltage necessary for eliciting reproducible cough responses. Then, tussive responses to the electrical stimuli are registered at 15, 30, 60, 90, 120, 150, 180, 240, 300 and 360 minutes after oral administration of the compounds of the invention.
The tussive responses are scored as follows: 1: no response; 2: sigh or exaggerated expiration; 3: marked cough; 4: one marked cough and one exaggerated expiration: 5: two marked coughs.
Six dogs are employed for each determination and the mean activity is calculated.
The inhibition percent of the cough response and the duration of activity are compared with codeine.

[3] = tested on: cough induced by citric acid aerosol in guinea pigs; experiment: Guinea pig cough test (citric acid aerosol, Charlier procedure); type: in vivo; settings: for ED50: guinea pig cough test, i.p., 60 minutes after treatment, 60 min
Procedure: as §1
According to the Charlier procedure guinea pigs are exposed to a citric acid aerosol (7.5%) and cough is recorded 60 minutes after the antitussive treatment by i.p. route. Male animals of 300-400 g pigs are placed in perspex box (20×30×30 cm) connected to an aerosol compressor; the animals are subjected to a citric acid saturated atmosphere, 60 minutes after the i.p. injection of a compound of the invention (0.1 and 0.3M solutions; 1 ml/kg).
The total number of cough strokes and the delay of the first cough are recorded during the first five minutes.
Five guinea pigs are used for each dose level and the results are compared with controls (vehicle treatment) and codeine phosphate 0.07M solution (standard treatment).
ED50 and the corresponding delay of first cough stroke are calculated.
The data obtained by i.p. administration are confirmed by oral administration.

[4] = tested on: pathological sputum of bronchitic rabbits; experiment: Mucus regulating properties in bronchitic rabbits (sputum AUC as % compared to bronchitic controls); type: in vivo, male New Zealand white rabbits; settings: for mucus regulating activity (in words): rabbit, in vivo
Procedure: The animals are submitted to inhalation of a 5% H2 SO3 aqueous solution by aerosol (exposition of 3 hours a day for 3 alternate days), to induce a chronic bronchial inflammatory disease which causes a production of pathological sputum in the bronchial tree.
Aim of the experiments is to evaluate modifications of selective parameters such as dry weight of the sputum, viscosity, content in proteins, phospholipids, galactose, sialic acid and fucose, induced in this pathological sputum by pharmacological treatment with the compounds of the invention.
To this purpose, the sputum produced in the bronchial tree is collected daily, through a "T" shaped glass cannula, inserted in the trachea, before and after oral twice a day (9.00 a.m. and 4.00 p.m.) treatment with one of the compounds of the invention.
The schedule treatment procedure is shown in the following Scheme 1: [drawing 21] where 0 indicates the day of implantation of the tracheal cannula; -7-5-3 indicate the days of H2 SO3 treatment (H); 1, 2, 3, 4 indicate the days of oral administration of the compounds of the invention (T) and the time of mucus collection (M).
The mucus collected in day 1 in the morning is considered as a blank; 7 indicates the day of the animal sacrifice after the mucous collection.
The sputum samples are stored in the freezer (-20° C.) until the investigation of biological and rheological parameters is carried out.
The samples are investigated for relative viscosity, measured at 37° C. with a Brookfield viscometer (model LT VD) equipped with a 1,565° cone-plate, and aliquoted for biochemical analysis of protein, phospholipids, galactose, sialic acid and fucose contents. Dry weight of the mucus is also determined. For each parameter, cumulative data are referred to a seven days period after the beginning of the treatment and they are extrapolated using the AUC method (area under curve) calculated by the trapazoidal rule. Finally the data are compared with data obtained from controls (vehicle treatment), non bronchitic rabbits (vehicle treatment) and positive controls bronchitic rabbits treated with 0.153M […].

[5] = tested on: guinea pig trachea smooth muscle strips; experiment: In vitro relaxation of guinea pig trachea smooth muscle strips contracted by methacoline
[6] = tested on: bronchospasm induced by i.v. histamine; experiment: Resolution of bronchospasm induced by i.v. histamine in anesthetized guinea-pigs (Konzett-Ressler test); type: in vivo; settings: intrajugular administration; more active than aminophylline
[7] = Table 2, oral, equimolecular amounts to S-carboxymethyl cysteine

Compound: C#CCOc1ccccc1OCC1SCCN1C(=O)CCNCCNCCO (stereo not drawn)
- ED50 [1]: 3 to 6 mg/kg
- duration of action (antitussive) [2]: very prolonged duration of action

Compound: C=CCOc1ccccc1OCC1SCCN1C(=O)CN (stereo not drawn)
- ED50 [1]: 3 to 30 mg/kg

Compound: COc1ccccc1OCC1(COc2ccccc2OC)SCCN1C(=O)CSC(C)=O
- ED50 [1]: 230 mg/kg
- duration of action ([2]; dog cough test): very prolonged action
- duration of action relative to codeine phosphate ([2]; dog cough test, longer than codeine phosphate): 2-3 times
- % inhibition of cough stimulus ([2]; dog, oral, dose not given): 13%

Compound: CCOC(=O)[C@@H]1CSC(COc2ccccc2OC)(COc2ccccc2OC)N1 [2,2-di(o-methoxyphenoxy)methyl-4-carbethoxythiazolidine]
- ED50 [1]: 116 mg/kg

Compound: COc1ccccc1OCC1SCCN1C(=O)CSC(C)=O (stereo not drawn) [2-(o-methoxyphenoxy)methyl-3-acetylthioacetylthiazolidine]
- antitussive properties (in words) [3]: good antitussive activity
- ED50 [3]: 77.1 mg/kg
- ED50 ([3]; listed as 3-Acetylthioacetyl-2-(o-methoxyphenoxymethyl)thiazolidine): lower than 5 mg/kg
- Fucose (mg/ml), AUC as a 100% compared to bronchitic controls [4, 7]: 151%
- Galactose (mg/ml), AUC as a 100% compared to bronchitic controls [4, 7]: 57%
- Mucus production (ml/kg), AUC as a 100% compared to bronchitic controls [4, 7]: 127%
- Phospholipids (mg/ml), AUC as a 100% compared to bronchitic controls [4, 7]: 37%
- Protein (mg/ml), AUC as a 100% compared to bronchitic controls [4, 7]: 78%
- Sialic acid (mg/ml), AUC as a 100% compared to bronchitic controls [4, 7]: 107%
- Viscosity (cps), AUC as a 100% compared to bronchitic controls [4, 7]: 59%
- mucus regulating activity (in words) [4]: mucus regulating properties
- duration of action ([2]; dog cough test): more favourable duration of action in comparison to codeine
- inhibition of the cough stimulus ([2]; dog, 20 mg/kg): 54.2%

Compound: Cc1ccccc1OCC1SCCN1C(=O)Cn1ccnc1 (stereo not drawn) [2-tolyloxy-methyl-3-(imidazol-1'-yl)acetylthiazolidine]
- antitussive properties (in words) [3]: not active in the cough tests
- mucus regulating activity (in words) [4]: some mucus regulating action in the bronchitic rabbits, with a spectrum of action very close to that of carboxymethylcysteine
- antitussive properties (in words) ([2]; dog cough test): not active in the cough tests

Compound: COc1ccccc1OCC1SCCN1C(=O)C=Cc1cc(CN2CCOCC2)c(O)c(OC)c1 (stereo not drawn) [3-(3'-morpholinomethyl-4'-hydroxy-3'-methoxy-cinnamoyl)-2-(O-methoxyphenoxy)methylthiazolidine hydrochloride]
- spasmolytic activity (in words) [5]: favourably compares with that of dihydroxypropyltheophylline
- EC50 ([5]; Cavia porcellus, contracted by methacoline, read-out: ED50 (relaxation of trachea smooth muscle strips)): 190 µM
- activity relative to aminophylline in the resolution of bronchospasm [6]: 3-6 times

Compound: COc1ccccc1OCC1SCCN1C(=O)CCNCCNCCO (stereo not drawn) [3-(3-(2-hydroxyethylamino)ethyl)aminopropanoyl-2-((O-methoxyphenoxy)methyl-thiazolidinebis maleate]
- ED50 [1]: 3 to 6 mg/kg
- duration of action (antitussive) [2]: very prolonged duration of action

Compound: COc1ccccc1OCC1SCCN1C(=O)CNC(C)=O (stereo not drawn) [3-(N-acetylaminoacetyl)-2-(O-methoxyphenoxy)methyl-thiazolidine]
- ED50 [1]: 3 to 30 mg/kg
